Assay [1] deals with Arabidopsis pls mutant seedlings (primary root length). The assay is described as follows: Hydroponic peptide feeding: rescue of short primary root of pls mutant. The assay is classed as in vivo, Arabidopsis thaliana. As to conditions: for rescue of root growth of pls seedlings: 50 nM peptide, n = 25 (Figure 2C). How it is done:
(A) Amino acid sequence of the PLS peptide from Arabidopsis thaliana with the Camelina sativa PLS sequence and the synthetic truncations N1, N2, C1, and C2 indicated by horizontal lines. Two cysteine residues are highlighted in bold. (B) Effect of the synthetic Arabidopsis PLS full-length peptide, A. thaliana PLS(FL), and the Camelina PLS peptide (C. sativa PLS) on Arabidopsis primary root length. Wild-type (C24; blue bars) and pls mutant seedlings (orange bars) were grown hydroponically in the presence (100 nM) or absence of peptide for 10 days. ∗∗∗P < 0.05, t-test between C24 and pls. Error bars show ±1 standard error of the mean, n = 20. (C) Effect of synthetic full-length and truncated peptides on primary root length of wild-type (blue bars) and pls mutant (orange bars) Arabidopsis. Seedlings were grown hydroponically in the presence of 50 nM peptide for 10 days. C1, C-terminal 14 amino acids; C2, C-terminal 24 amino acids; N1, N-terminal 22 amino acids; N2, N-terminal 9 amino acids; full-length PLS, 36 amino acids. Error bars show ±1 standard error of the mean, n = 25. ∗∗∗P < 0.05, t-test between C24 and pls.
proPLS::PLS:GFP comprises a 1.5-kb PLS promoter sequence ([Casson et al., 2002]) fused to the PLS open reading frame in pMDC107 (obtained from Prof. P.J. Hussey, Durham University) as a C-terminal GFP translational fusion. The PLS ORF with its 1.5-kb promoter was amplified from the TOPO 2.1 vector, which contained the PLS gene sequence with promoter ([Casson et al., 2002]); the primers used for cloning are listed in supplemental Table 9. pls mutant plants were transformed using the method of [Clough and Bent (1998)]. proPLS::GFP plants were generated using the 1.5-kb PLS promoter ([Casson et al., 2002]) fused to GFP in a wild-type background. p35S::GFP seedlings were obtained from Dr. Piers Hemsley, Durham University. Seedlings of Arabidopsis thaliana ecotype C24 or Col-0, pls mutants, and transgenic PLS overexpressers, all from lab stocks, were grown on solid sterile half-strength (2.2 g/l) Murashige and Skoog medium (Sigma-Aldrich) containing 10 g/l sucrose (half-strength [½] MS10 medium) solidified with 2.5 g/l Phytagel (Sigma-Aldrich) in 90-mm Petri dishes (Sarstedt, Leicester, UK) at 21°C under a 16-h photoperiod as described previously ([Casson et al., 2002]; [Chilley et al., 2006]). N. benthamiana plants (lab stocks) were grown in a controlled environment (21°C, 16-h photoperiod) for transient expression studies in leaf tissue. For hydroponic feeding studies, Arabidopsis seedlings were cultured in liquid ½ MS10 medium (1 ml/well) in sterile 24-well plates (Sarstedt), essentially as described in [Matsuzaki et al. (2010]). For hormone and peptide assays, one seedling was grown in each well at 21°C under a 16-h photoperiod. For peptide feeding experiments, purified freeze-dried peptide was dissolved in DMSO to create a 500-μM stock solution. The peptide stock solution was added to liquid ½ MS10 medium containing 0.1% DMSO to obtain a final peptide concentration of 50 or 100 nM (or 10, 25, 50, and 100 nM for dose-dependent assays). For copper treatments, 1 mM CuSO4 solution was filter sterilized and added to autoclaved liquid ½ MS10 medium to obtain final CuSO4 concentrations of 0, 5, 10, 15, 20, 25, 30, 35, 40, 45, and 50 μM. Seedlings were scanned to create a digital image, and root lengths of the seedlings were measured using ImageJ. Statistical analysis was performed using Real Statistics Resource Pack software (release 3.8, www.real-statistics.com) in Excel (Microsoft) using data from at least 10 independently grown seedlings for root growth analysis; specific numbers are defined for each experiment.

Assay [2] in a line: Anaerobic Cu(I) titration in competition with bicinchoninic acid (BCA). To be noted: synthetic peptide; mutant 40 μM, BCA 93.3 μM, mean ± SD, n = 3 (supplemental Figure 10). Format: binding. How it is done: Freeze-dried synthetic PLS peptide (Cambridge Research Biochemicals) was dissolved in DMSO. An aliquot was added to aqueous buffer (10 mM HEPES [pH 7], 20 mM NaCl, 80 mM KCl), and absorbance was recorded at 280 nm. PLS concentration was estimated from the absorbance and the ProtParam estimated extinction coefficient of 2980 M^−1 cm^−1. Concurrently, a sample was submitted for quantitative amino acid analysis (Abingdon Health Laboratory Services). From this analysis, a conversion factor of 2.27 was generated, which was applied to the concentrations determined by A280 nm.
A fusion of PLS to MBP was created using the NEBExpress MBP Fusion and Purification System. Two complementary oligonucleotide primers encoding PLS (optimized for expression in E. coli) were annealed and inserted into the pMal-c5x plasmid at the XmnI and SalI insertion sites. The three mutants MBP:PLS(C6S), MBP:PLS(C17S), and MBP:PLS(C6S/C17S) were created by site-directed mutagenesis (QuikChange II, Agilent). E. coli NEB Express containing the pMal plasmid with the correct MBP:PLS mutant was used to overexpress each protein. Harvested cells were resuspended in 20 mM Tris–HCl (pH 7.4), 200 mM NaCl, and 1 mM EDTA, then frozen at −20°C overnight. Cells were defrosted in cold H2O, sonicated, purified by ammonium sulfate precipitation (where MBP-PLS precipitates >60% saturation), separated on an MBP-Trap column (GE Healthcare), and eluted using buffer containing 10 mM maltose. MBP:PLS-containing fractions were pooled and concentrated using a centrifugal concentrator (Corning, Spin-X UF 30 kDa) and buffer exchanged by desalting column into a metal-free buffer of 20 mM HEPES (pH 7.0) and 50 mM NaCl in an anaerobic chamber (Belle Technology). Mutants containing thiols were quantified using Ellman’s assay, and MBP:PLS(C6S/C17S), which lacks all thiols, was quantified using the Bradford assay alone. Samples were also analyzed for metal content by ICP–MS to ensure >95% apo-protein.
All Cu(I) titration experiments were carried out in an anaerobic chamber (Belle Technology) using metal-free CHELEX-treated, degassed buffers. For titration experiments with Cu(I), aqueous CuSO4 stock was quantified in advance by ICP–MS and diluted to working concentrations. The reductant NH2OH was included at a final concentration of 1 mM to maintain Cu(I) in its reduced state. Proteins were diluted in buffer to the final concentration specified in each titration in air-tight quartz cuvettes (Helma), and after addition of probe to the concentration specified, titrated with CuSO4. After each addition, solutions were thoroughly mixed and absorbance spectra recorded using a Lambda 35 UV/Vis spectrophotometer (PerkinElmer). Titration isotherm data were fitted using simulated affinity curves with DynaFit ([Kuzmič, 2009]).

The subject of a further assay is pPLS::GUS. The assay is described as follows: pPLS::GUS expression in root tips after hormone treatment. Format: in vivo, Arabidopsis. To be noted: 10 μM 2,4-D, root tips. The text has this:
Figure S15. The link between auxi n and et hyl ene si gnal l i ng ef f ect s on PLS transcription, and downstream ef f ect s on et hyl ene responses.
(A) Ant agoni sm between auxi n and et hyl ene on PLS expressi on.
Auxin posit ively regulates PLS gene transcription, whi l e ACC (ethylene pr ecur sor ) […]
Lef t upper panel: pPLS::GUS […]
expr ession in the Arabidopsis root tip under standard gr owt h conditions. Lef t lower panel: pPLS::PLS:GFP expr ession in the Arabidopsis root tip under standard gr owt h conditions.
Ri ght panel: pPLS::GUS expr ession in root tips treated wi t h 10 μM 2,4-D, showing ect opic […]
10 μM 2,4-D plus 10 μm ACC, showing the ant agonism of the inductive eff ect of 2,4-D on PLS::GUS expr ession. Images ar e representative of 10 independently gr own roots. […]

In a further assay the test system is pls mutant. To be noted: cited from earlier work. The text has this: Transgenic complementation of the mutant by the PLS gene (AT4G39403), which encodes a 36-amino-acid peptide, suppresses the mutant phenotype ([ ... || The pls mutant is rescued by the supply of silver ions ([Casson et al., 2002]), and silver is likely delivered to the ethylene receptor via RAN1 ([Binder et al., 2010]); these findings argue against a mechanism in which PLS acts downstream of RAN1 to metalate ETR1 in the ER lumen. It is also unlikely that PLS removes Cu(I) from the receptor, as this would inactivate the receptor and lead to enhanced ethylene signaling in the presence of PLS, which is the opposite of what would be expected from the pls mutant phenotype. We therefore favor a model (Figure 6) in which PLS binds ETR1 as part of th ...

The target of assay [3] is T1, full-length ETR1, recombinant, purified and fluorescently labeled (Arabidopsis, UniProt P49333 1-738, fluorescent label (dye and site not stated)).
T1 chain: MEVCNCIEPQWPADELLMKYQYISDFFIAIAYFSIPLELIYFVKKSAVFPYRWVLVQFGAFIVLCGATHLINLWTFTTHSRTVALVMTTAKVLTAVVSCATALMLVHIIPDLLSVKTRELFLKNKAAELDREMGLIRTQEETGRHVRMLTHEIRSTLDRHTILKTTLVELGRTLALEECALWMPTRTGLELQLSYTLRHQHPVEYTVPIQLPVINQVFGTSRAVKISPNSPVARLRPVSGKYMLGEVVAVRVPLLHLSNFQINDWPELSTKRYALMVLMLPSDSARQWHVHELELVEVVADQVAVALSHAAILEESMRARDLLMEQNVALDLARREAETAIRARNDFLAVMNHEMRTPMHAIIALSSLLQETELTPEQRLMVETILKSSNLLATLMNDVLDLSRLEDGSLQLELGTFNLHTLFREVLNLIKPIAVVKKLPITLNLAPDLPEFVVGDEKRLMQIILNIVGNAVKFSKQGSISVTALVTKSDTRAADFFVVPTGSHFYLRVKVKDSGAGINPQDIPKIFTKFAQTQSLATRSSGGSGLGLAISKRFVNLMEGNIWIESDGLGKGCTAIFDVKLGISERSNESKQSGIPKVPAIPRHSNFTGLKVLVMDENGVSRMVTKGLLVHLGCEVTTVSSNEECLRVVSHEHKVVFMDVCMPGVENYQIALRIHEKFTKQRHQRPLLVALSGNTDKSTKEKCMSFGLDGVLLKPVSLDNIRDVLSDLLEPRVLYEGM
Nature of the assay: MST.

“Also recorded” adds a separate entry of the source.

Consider “PLS(FL C6S, C17S): mutated Arabidopsis full-length peptide in which both cysteines were replaced with serines (MKPRLSFNFRRRSISPSYISISYLLVAKLFKLFKIH; full-length; UniProt Q8LLV8 1-36, looked up, variant C6S C17S)”, for which the “rescue of pls mutant by double-Cys mutant peptide” value in assay [1] (100 nM, hydroponic, 10 days (Figure 5A)) is listed as “non-functional; also recorded: failing to rescue the short primary root phenotype of the pls mutant”. Besides, in assay [2], the “withholding of Cu(I) from BCA” value is recorded as “does not”. In the case of “C1: C-terminal 14 amino acids of Arabidopsis PLS (YLLVAKLFKLFKIH; UniProt Q8LLV8 23-36, looked up, fragment)”, the “rescue of root growth of pls seedlings” value in assay [1] (hydroponic, 10 days) is on record as “unable to rescue the mutant”.

Regarding “C2: C-terminal 24 amino acids of Arabidopsis PLS (SISPCYISISYLLVAKLFKLFKIH; UniProt Q8LLV8 13-36, looked up, fragment)”, the “rescue of root growth of pls seedlings” value in assay [1] (hydroponic, 10 days) is given as “unable to rescue the mutant”.

With `O=C(O)COc1ccc(Cl)cc1Cl` [2,4-D], the “pPLS::GUS expression” value in the assay with pPLS::GUS was “throughout the root”. As for “N2: N-terminal 9 amino acids of Arabidopsis PLS (MKPRLCFNF; UniProt Q8LLV8 1-9, looked up, fragment)”, the “rescue of root growth of pls seedlings” value in assay [1] (hydroponic, 10 days) is “unable to rescue the mutant”.

Regarding silver ions, the “rescue of pls mutant phenotype” value in the assay with pls mutant (pharmacological inhibition of ethylene signaling, ref Chilley et al., 2006) is listed as “rescued”. Moreover, the “rescue of pls mutant” value with pls mutant (supply of silver ions, ref Casson et al., 2002) was “rescued”.

For the molecule “N1: N-terminal 22 amino acids of Arabidopsis PLS (MKPRLCFNFRRRSISPCYISIS; UniProt Q8LLV8 1-22, looked up, fragment)”, the “rescue of root growth of pls seedlings” value in assay [1] (hydroponic, 10 days) is listed as “rescued root growth”. In addition, in assay [1] (50 nM, n = 25), the “difference in rescue effects of PLS(FL) and PLS(N1), t-test P” value is listed as greater than 0.1. Further, the “difference in rescue effects of PLS(FL) and PLS(N1)” value in assay [1] (50 nM, n = 25, t-test) is listed as “did not differ significantly”. Moreover, the “rescue of short primary root length of pls mutant” value in assay [1] (hydroponic, 10 days, 100 nM (Figure 2B) or 50 nM (Figure 2C)) is “able to rescue the short primary root length”.

Usually Kd stands for the equilibrium constant for the complex coming apart. Regarding MKPRLCFNFRRRSISPCYISISYLLVAKLFKLFKIH [synthetic full-length POLARIS (PLS) peptide, PLS(FL)], in assay [3], the Kd stood at 1900 nM.

Values taken from article PMC12744750 (Plant Communications, 2025).
